Source: patent US5288709A, “Erythromycin derivatives” (priority 1991, dated 1994)
In brackets after ≈: the same amount, converted by molar mass. Like-named read-outs stand apart in the source and are kept apart here.

What was measured:
[1] = system: Streptococcus pyogenes C-203; experiment: In-vivo acute mouse protection assay; parameters: species or system Streptococcus pyogenes; female Swiss albino mice; conditions: dosed 1 and 5 h post-infection, observed 7 days
Protocol: An acute mouse protection test was conducted on ten mice with each of three concentrations of selected compounds of the invention. Each concentration was a four-fold dilution of the previous concentration. The initial concentration will vary with the microorganism with which the mouse is challenged.
The acute mouse protection test was conducted on female, Swiss albino mice, 18-20 grams in weight. […] To check the potency of the inoculum, a titration of the indicated test organism was carried out in control animals. The titration determines the LD50 for a particular microorganism. The treatment groups of animals were dosed orally, by gavage, or subcutaneously with the test compounds at 1 and 5 hours post-infection and observed for 7 days. The ED50 were calculated using the mortality data collected.

[2] = system: Staphylococcus aureus CMX 686B; experiment: In-vitro antimicrobial activity primary screen (agar dilution MIC); type: cell-based; conditions: CMX686B, BHI agar, 20-24 h, read-out: MIC
Method in brief: (§1)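 MIC is read as the lowest compound level yielding no growth, slight haze or sparse colonies on the inoculum spot, relative to a drug-free plate. Strains were replicator-inoculated (1:100 dilution) onto BHI agar plates holding twelve dilutions and held at 35-37 °C for 20-24 h, with erythromycin A as comparator.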

[3] = system: Staphylococcus aureus CMX 553; experiment: as above; type: cell-based; conditions: Staphylococcus aureus, CMX553, 24 h, BHI agar, 20-24 h, read-out: MIC
Method in brief: as §1

[4] = system: Staphylococcus aureus CMX 503A; experiment: as above; type: cell-based; conditions: Staphylococcus aureus, CMX503A, 24 h, BHI agar, 20-24 h, read-out: MIC
Method in brief: as §1

Escherichia coli JUHL = experiment: as above; type: cell-based; conditions: Escherichia coli JUHL; BHI agar, 20-24 h; read-out: MIC
Method in brief: (§2)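 BHI agar dilution MIC, 35-37° C overnight (20-24 h), replicator inoculation at 1:100 or 1:10 for slow strains. Endpoint: no growth, slight haze or sparse colonies versus compound-free plate.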

Staphylococcus aureus 45 = experiment: as above; type: cell-based; conditions: BHI agar, 20-24 h, read-out: MIC
Method in brief: as §2

[5] = system: Pseudomonas aeruginosa A5007; experiment: as above; type: cell-based; conditions: Pseudomonas aeruginosa A5007; BHI agar, 20-24 h; read-out: MIC
Method in brief: as §2

[6] = system: Streptococcus pyrogenes EES61; experiment: as above; type: cell-based; conditions: BHI agar, 20-24 h
Method in brief: as §2

[7] = system: Streptococcus pyrogenes 2548 INDUC; experiment: as above; type: cell-based; conditions: BHI agar, 20-24 h
Method in brief: as §2

[8] = system: Micrococcus luteus ATCC 9341; experiment: as above; type: cell-based; conditions: 20-24 h
Method in brief: as §2

[9] = system: Staphylococcus aureus 45 RAR2; experiment: as above; type: cell-based; conditions: Staphylococcus aureus, 45RAR2, 24 h, BHI agar, 20-24 h
Method in brief: as §2

[10] = system: Staphylococcus aureus ATCC 6538P; experiment: as above; type: cell-based; conditions: Staphylococcus aureus, ATCC6538P, 24 h, BHI agar, 20-24 h
Method in brief: as §2

[11] = system: Enterobacter aerogenes ATCC 13048; experiment: as above; type: cell-based; conditions: Klebsiella aerogenes, ATCC13048; Enterobacter aerogenes ATCC 13048; BHI agar, 20-24 h; read-out: MIC
Method in brief: as §2

Escherichia coli DC-2 = experiment: as above; type: cell-based; conditions: DC2; Escherichia coli DC-2; BHI agar, 20-24 h; read-out: MIC
Method in brief: as §2

[12] = system: Pseudomonas aeruginosa K799/WT; experiment: as above; type: cell-based; conditions: Pseudomonas aeruginosa K799/WT; BHI agar, 20-24 h; read-out: MIC
Method in brief: as §2

Pseudomonas cepacia 2961 = experiment: as above; type: cell-based; conditions: Burkholderia cepacia, BHI agar, 20-24 h, read-out: MIC
Method in brief: as §2

[13] = system: Providencia stuartii CMX 640; experiment: as above; type: cell-based; conditions: CMX640; Providencia stuartii CMX 640; BHI agar, 20-24 h; read-out: MIC
Method in brief: as §2

[14] = system: Streptococcus bovis A5169; experiment: as above; type: cell-based; conditions: Streptococcus equinus, BHI agar, 20-24 h, read-out: MIC
Method in brief: as §2

[15] = system: Pseudomonas aeruginosa K799/61; experiment: as above; type: cell-based; conditions: Pseudomonas aeruginosa K799/61, BHI agar, 20-24 h
Method in brief: as §2

[16] = system: Streptococcus agalactiae CMX 508; experiment: as above; type: cell-based; conditions: 20-24 h
Method in brief: as §2

[17] = system: Staphylococcus epidermidis 3519; experiment: as above; type: cell-based; conditions: BHI agar, 20-24 h, read-out: MIC
Method in brief: as §2

[18] = system: Klebsiella pneumoniae ATCC 8045; experiment: as above; type: cell-based; conditions: Klebsiella pneumoniae ATCC 8045, BHI agar, 20-24 h
Method in brief: as §2

[19] = system: Pseudomonas aeruginosa BMH10; experiment: as above; type: cell-based; conditions: BHI agar, 20-24 h, read-out: MIC
Method in brief: as §2

Escherichia coli SS = experiment: as above; type: cell-based; conditions: BHI agar, 20-24 h
Method in brief: as §2

[20] = system: Enterococcus faecium ATCC 8043; experiment: as above; type: cell-based; conditions: Enterococcus faecium, ATCC8043, 24 h
Method in brief: as §2

[21] = system: Micrococcus luteus ATCC 4698; experiment: as above; type: cell-based; conditions: Micrococcus luteus, ATCC4698, 24 h, BHI agar, 20-24 h
Method in brief: as §2

[22] = system: Staphylococcus aureus A5177; experiment: as above; type: cell-based; conditions: Staphylococcus aureus A5177, BHI agar, 20-24 h
Method in brief: as §2

Escherichia coli H560 = experiment: as above; type: cell-based; conditions: Escherichia coli H560; BHI agar, 20-24 h; read-out: MIC
Method in brief: as §2

Acinetobacter SP CMX 669 = experiment: as above; type: cell-based; conditions: Acinetobacter, SPCMX669, 24 h
Method in brief: as §2

Structure (SMILES)	ED50 ([1]; C203, 168 h, oral) [mg/kg]	ED50 ([1]; C203, sc, 168 h, subcutaneous) [mg/kg]	MIC [2] [µg/mL]	MIC [3] [µg/mL]	MIC [4] [µg/mL]	MIC (Escherichia coli JUHL) [µg/mL]	MIC (Staphylococcus aureus 45) [µg/mL]	MIC [5] [µg/mL]	MIC [9] [µg/mL]	MIC [10] [µg/mL]	MIC [11] [µg/mL]	MIC (Escherichia coli DC-2) [µg/mL]	MIC [12] [µg/mL]	MIC (Pseudomonas cepacia 2961) [µg/mL]	MIC [13] [µg/mL]	MIC [14] [µg/mL]	MIC [17] [µg/mL]	MIC [19] [µg/mL]	MIC [20] [µg/mL]	MIC [21] [µg/mL]	also measured
CC[C@H]1OC(=O)[C@H](C)[C@@H](O[C@H]2C[C@@](C)(OC)[C@@H](O)[C@H](C)O2)[C@H](C)[C@@H](O[C@@H]2O[C@H](C)C[C@H](N(C)C)[C@H]2O)[C@](C)(O)C[C@@H](C)[C@@H]2O[C@@]1(C)C(=O)[C@H]2C [Example 5, (9S)-9-Deoxo-11,12-dideoxy-9,12-epoxy-11-oxoerythromycin A]	3.9	1.7	0.39 (≈ 0.545 µM)	0.1 (≈ 0.14 µM)	0.2 (≈ 0.279 µM)	100 (≈ 140 µM)	0.1 (≈ 0.14 µM)	> 100	0.2 (≈ 0.279 µM)	0.39 (≈ 0.545 µM)	> 100	> 100	100 (≈ 140 µM)	100 (≈ 140 µM)	> 100	0.1 (≈ 0.14 µM)	0.2 (≈ 0.279 µM)	100 (≈ 140 µM)	0.1 (≈ 0.14 µM)	0.1 (≈ 0.14 µM)	MIC ([6]; Streptococcus, EES61, 24 h): < 0.05 µg/mL; MIC ([7]; read-out: MIC): 1.56 µg/mL (≈ 2.18 µM); MIC ([8]; Micrococcus luteus, ATCC9341, 24 h, BHI agar): < 0.05 µg/mL; MIC ([15]; Pseudomonas aeruginosa, K799/61, 24 h): 1.56 µg/mL (≈ 2.18 µM); MIC ([16]; Streptococcus agalactiae, CMX508, 24 h, BHI agar): 0.1 µg/mL (≈ 0.14 µM); MIC ([18]; ATCC8045, read-out: MIC): > 100 µg/mL; MIC (Escherichia coli SS; Escherichia coli, 24 h): 0.2 µg/mL (≈ 0.279 µM); MIC ([22]; Staphylococcus aureus, A5177, 24 h): 3.1 µg/mL (≈ 4.33 µM); MIC (Escherichia coli H560): 100 µg/mL (≈ 140 µM); MIC (Acinetobacter SP CMX 669; Acinetobacter SP CMX 669, BHI agar, 20-24 h): 12.5 µg/mL (≈ 17.5 µM)
CC[C@H]1OC(=O)[C@H](C)[C@@H](O[C@H]2C[C@@](C)(OC)[C@@H](O)[C@H](C)O2)[C@H](C)[C@@H](O[C@@H]2O[C@H](C)C[C@H](N(C)C)[C@H]2O)[C@](C)(O)C[C@@H](C)[C@@H]2O[C@@]1(C)[C@@H](N)[C@H]2C [Example 19, (9S,11S)-11-Amino-9-deoxo-11,12-deoxy-9,12-epoxyerythromycin A]	28.9	2.5	0.2 (≈ 0.279 µM)	0.2 (≈ 0.279 µM)	0.2 (≈ 0.279 µM)	> 100	0.2 (≈ 0.279 µM)	> 100	0.39 (≈ 0.544 µM)	0.2 (≈ 0.279 µM)	100 (≈ 139 µM)	50 (≈ 69.7 µM)	100 (≈ 139 µM)	> 100	> 100	0.1 (≈ 0.139 µM)	0.2 (≈ 0.279 µM)	50 (≈ 69.7 µM)	0.05 (≈ 0.0697 µM)	0.1 (≈ 0.139 µM)	MIC ([6]; read-out: MIC): < 0.005 µg/mL; MIC ([7]; Streptococcus, 2548INDUC, 24 h): 3.1 µg/mL (≈ 4.32 µM); MIC ([8]; ATCC9341, BHI agar, read-out: MIC): 0.01 µg/mL (≈ 0.0139 µM); MIC ([15]; read-out: MIC): 0.78 µg/mL (≈ 1.09 µM); MIC ([16]; CMX508, BHI agar, read-out: MIC): 0.02 µg/mL (≈ 0.0279 µM); MIC ([18]; Klebsiella pneumoniae, ATCC8045, 24 h): 25 µg/mL (≈ 34.9 µM); MIC (Escherichia coli SS; read-out: MIC): 0.78 µg/mL (≈ 1.09 µM); MIC ([22]; read-out: MIC): 0.39 µg/mL (≈ 0.544 µM); MIC (Escherichia coli H560): 6.2 µg/mL (≈ 8.65 µM); MIC (Acinetobacter SP CMX 669): 1.56 µg/mL (≈ 2.18 µM)
